Results: ChEMBL document CHEMBL4219106, “Discovery and optimization of tetrahydropyrido[4,3-d]pyrimidine derivatives as novel ATX and EGFR dual inhibitors” (Bioorg Med Chem, 2018)
Activity calls are given as the source filed them. The calls are words filed in the database; no cut-off is given here.

Key:
A549 [1] = test: Cytotoxicity against human A549 cells assessed as reduction in cell viability after 72 hrs by MTT assay; assay type: functional, cell-based; conditions: A549, 72 h
RAW264.7 [2] = test: Anti-inflammatory activity in mouse RAW264.7 cells assessed as inhibition of LPS-induced NO production by measuring NO level at 5 ug/ml preincubated for 1 hr followed by LPS-stimulation measured after 24 hrs by Griess assay; assay type: functional
MKN-45 [3] = test: Cytotoxicity against human MKN45 cells assessed as reduction in cell viability after 72 hrs by MTT assay; assay type: functional, cell-based; conditions: MKN-45, 72 h
[4] = Cytotoxicity against human SGC cells assessed as reduction in cell viability after 72 hrs by MTT assay; assay type: functional, cell-based
NCI-H1975 = test: Cytotoxicity against human NCI-H1975 cells assessed as reduction in cell viability after 72 hrs by MTT assay; assay type: functional, cell-based; conditions: NCI-H1975, 72 h
RAW264.7 [5] = test: Anti-inflammatory activity in mouse RAW264.7 cells assessed as inhibition of LPS-induced NO production by measuring NO level at 10 ug/ml preincubated for 1 hr followed by LPS-stimulation measured after 24 hrs by Griess assay; assay type: functional
[6] = Antifibrotic activity against Wistar rat cardiac fibroblasts assessed as inhibition of cell proliferation at 20 uM after 12 hrs by MTT assay relative to control; assay type: functional
RAW264.7 [7] = test: Anti-inflammatory activity in mouse RAW264.7 cells assessed as inhibition of LPS-induced NO production by measuring NO level at 2.5 ug/ml preincubated for 1 hr followed by LPS-stimulation measured after 24 hrs by Griess assay; assay type: functional
[8] = molecular target: Epidermal growth factor receptor (Homo sapiens, UniProt P00533); test: Inhibition of EGFR (unknown origin) using peptide substrate after 60 mins by HTRF assay
[9] = molecular target: Vascular endothelial growth factor receptor 2 (Homo sapiens, UniProt P35968); test: Inhibition of VEGFR2 (unknown origin) using peptide substrate after 60 mins by HTRF assay
[10] = Inhibition of glycosylated human ATX using substrate FS-3 preincubated for 45 mins followed by substrate addition measured after 45 mins by fluorescence assay
[11] = Antifibrotic activity against TGF-induced Wistar rat cardiac fibroblasts assessed as inhibition of cell proliferation after 12 hrs by MTT assay; assay type: functional
[12] = Inhibition of ATX (unknown origin); design: species or system Homo sapiens
RAW264.7 [13] = test: Anti-inflammatory activity in mouse RAW264.7 cells assessed as inhibition of LPS-induced TNFalpha mRNA level preincubated for 2 hrs followed by LPS-stimulation measured after 8 hrs by RT-PCR method; assay type: functional, cell-based
RAW264.7 [14] = test: Anti-inflammatory activity in mouse RAW264.7 cells assessed as inhibition of LPS-induced TNFalpha mRNA level at 5 ug/ml preincubated for 2 hrs followed by LPS-stimulation measured after 8 hrs by RT-PCR method relative to control; assay type: functional
RAW264.7 [15] = test: Anti-inflammatory activity in mouse RAW264.7 cells assessed as inhibition of LPS-induced TGFbeta mRNA level at 5 ug/ml preincubated for 2 hrs followed by LPS-stimulation measured after 8 hrs by RT-PCR method relative to control; assay type: functional
RAW264.7 [16] = test: Anti-inflammatory activity in mouse RAW264.7 cells assessed as inhibition of LPS-induced TGFbeta mRNA level preincubated for 2 hrs followed by LPS-stimulation measured after 8 hrs by RT-PCR method; assay type: functional, cell-based
RAW264.7 [17] = test: Anti-inflammatory activity in mouse RAW264.7 cells assessed as inhibition of LPS-induced TNFalpha mRNA level at 2.5 ug/ml preincubated for 2 hrs followed by LPS-stimulation measured after 8 hrs by RT-PCR method relative to control; assay type: functional
RAW264.7 [18] = test: Anti-inflammatory activity in mouse RAW264.7 cells assessed as inhibition of LPS-induced TNFalpha mRNA level at 10 ug/ml preincubated for 2 hrs followed by LPS-stimulation measured after 8 hrs by RT-PCR method relative to control; assay type: functional
[19] = molecular target: Epidermal growth factor receptor (Homo sapiens, UniProt P00533, L858R/T790M); test: Inhibition of EGFR T790M/L858R double mutant (unknown origin) using peptide substrate after 60 mins by HTRF assay
RAW264.7 [20] = test: Anti-inflammatory activity in mouse RAW264.7 cells assessed as inhibition of LPS-induced TGFbeta mRNA level at 10 ug/ml preincubated for 2 hrs followed by LPS-stimulation measured after 8 hrs by RT-PCR method relative to control; assay type: functional
RAW264.7 [21] = test: Anti-inflammatory activity in mouse RAW264.7 cells assessed as inhibition of LPS-induced TGFbeta mRNA level at 2.5 ug/ml preincubated for 2 hrs followed by LPS-stimulation measured after 8 hrs by RT-PCR method relative to control; assay type: functional
MKN-45 [22] = test: Potency index, ratio of gefitinib IC50 to compound IC50 for human MKN45 cells; assay type: functional
[23] = Potency index, ratio of gefitinib IC50 to compound IC50 for human SGC cells; assay type: functional
A549 [24] = test: Potency index, ratio of gefitinib IC50 to compound IC50 for human A549 cells; assay type: functional

Chain of Vascular endothelial growth factor receptor 2 (P35968 whole entry): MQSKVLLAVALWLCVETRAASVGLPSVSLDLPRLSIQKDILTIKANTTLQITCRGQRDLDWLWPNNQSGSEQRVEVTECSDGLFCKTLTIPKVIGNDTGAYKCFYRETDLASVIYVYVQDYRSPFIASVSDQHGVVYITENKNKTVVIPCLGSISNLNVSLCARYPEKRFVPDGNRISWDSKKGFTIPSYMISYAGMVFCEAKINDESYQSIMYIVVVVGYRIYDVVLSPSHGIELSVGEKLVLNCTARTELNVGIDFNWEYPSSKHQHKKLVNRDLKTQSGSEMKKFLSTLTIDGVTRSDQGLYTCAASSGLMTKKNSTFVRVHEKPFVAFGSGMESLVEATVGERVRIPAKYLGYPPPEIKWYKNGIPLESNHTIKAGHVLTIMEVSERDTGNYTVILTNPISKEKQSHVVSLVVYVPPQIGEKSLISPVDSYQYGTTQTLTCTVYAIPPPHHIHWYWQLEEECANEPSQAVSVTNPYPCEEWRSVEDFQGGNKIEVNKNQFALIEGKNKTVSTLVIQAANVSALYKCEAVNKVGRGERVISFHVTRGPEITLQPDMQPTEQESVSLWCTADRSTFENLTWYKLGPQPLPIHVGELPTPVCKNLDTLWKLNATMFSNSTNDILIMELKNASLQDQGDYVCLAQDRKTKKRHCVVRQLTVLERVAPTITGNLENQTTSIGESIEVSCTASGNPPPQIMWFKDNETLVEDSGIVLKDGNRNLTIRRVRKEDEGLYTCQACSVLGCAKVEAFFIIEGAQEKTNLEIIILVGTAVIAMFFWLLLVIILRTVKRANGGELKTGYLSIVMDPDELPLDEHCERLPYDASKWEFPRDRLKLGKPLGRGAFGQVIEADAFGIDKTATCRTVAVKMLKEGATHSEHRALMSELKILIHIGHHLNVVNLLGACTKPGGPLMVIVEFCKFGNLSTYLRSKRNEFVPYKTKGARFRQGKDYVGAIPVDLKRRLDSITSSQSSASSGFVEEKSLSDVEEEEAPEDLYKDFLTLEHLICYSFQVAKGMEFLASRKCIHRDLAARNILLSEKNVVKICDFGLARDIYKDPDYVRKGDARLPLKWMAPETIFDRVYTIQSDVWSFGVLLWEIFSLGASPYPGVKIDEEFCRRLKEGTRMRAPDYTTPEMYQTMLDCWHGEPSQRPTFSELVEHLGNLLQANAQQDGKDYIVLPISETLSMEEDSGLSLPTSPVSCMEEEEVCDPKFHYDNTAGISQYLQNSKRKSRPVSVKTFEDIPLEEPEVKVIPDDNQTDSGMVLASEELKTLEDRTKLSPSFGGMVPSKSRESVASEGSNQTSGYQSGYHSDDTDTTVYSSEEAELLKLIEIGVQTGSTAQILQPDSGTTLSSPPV
Chain of Epidermal growth factor receptor (Homo sapiens, UniProt P00533) (P00533 whole entry): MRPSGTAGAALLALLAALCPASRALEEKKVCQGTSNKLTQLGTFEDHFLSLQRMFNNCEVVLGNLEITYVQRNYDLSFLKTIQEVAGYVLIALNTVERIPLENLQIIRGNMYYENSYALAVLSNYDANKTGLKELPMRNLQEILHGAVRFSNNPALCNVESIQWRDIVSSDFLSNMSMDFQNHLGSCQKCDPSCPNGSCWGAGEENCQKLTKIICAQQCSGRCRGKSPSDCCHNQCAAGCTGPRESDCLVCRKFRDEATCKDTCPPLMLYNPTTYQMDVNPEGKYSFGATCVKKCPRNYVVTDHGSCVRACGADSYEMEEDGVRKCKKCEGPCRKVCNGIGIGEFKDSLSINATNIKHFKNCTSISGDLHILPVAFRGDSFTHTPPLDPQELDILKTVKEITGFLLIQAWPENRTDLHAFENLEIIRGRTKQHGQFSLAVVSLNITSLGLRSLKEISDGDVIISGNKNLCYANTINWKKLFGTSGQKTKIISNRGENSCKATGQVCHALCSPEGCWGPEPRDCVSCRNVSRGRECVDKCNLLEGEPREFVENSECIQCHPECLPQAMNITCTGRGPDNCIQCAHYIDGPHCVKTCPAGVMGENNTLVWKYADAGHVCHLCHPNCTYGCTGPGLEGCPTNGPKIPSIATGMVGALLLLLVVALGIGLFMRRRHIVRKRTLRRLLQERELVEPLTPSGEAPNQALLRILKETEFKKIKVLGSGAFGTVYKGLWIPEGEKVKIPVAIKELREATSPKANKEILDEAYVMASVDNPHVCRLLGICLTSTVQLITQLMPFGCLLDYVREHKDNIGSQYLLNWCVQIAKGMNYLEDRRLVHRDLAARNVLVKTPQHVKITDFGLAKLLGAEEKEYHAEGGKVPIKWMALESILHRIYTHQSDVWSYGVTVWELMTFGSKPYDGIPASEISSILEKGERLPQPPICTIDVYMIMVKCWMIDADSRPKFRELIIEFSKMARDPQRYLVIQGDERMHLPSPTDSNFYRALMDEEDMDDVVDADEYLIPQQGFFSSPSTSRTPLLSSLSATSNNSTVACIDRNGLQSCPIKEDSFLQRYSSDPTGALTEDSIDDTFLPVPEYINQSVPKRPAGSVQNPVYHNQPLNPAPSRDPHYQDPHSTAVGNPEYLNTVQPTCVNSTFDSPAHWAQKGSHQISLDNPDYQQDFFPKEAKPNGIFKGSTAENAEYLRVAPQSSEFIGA
Chain of Epidermal growth factor receptor (Homo sapiens, UniProt P00533, L858R/T790M) (P00533 25-1210 T790M/L858R limits assumed): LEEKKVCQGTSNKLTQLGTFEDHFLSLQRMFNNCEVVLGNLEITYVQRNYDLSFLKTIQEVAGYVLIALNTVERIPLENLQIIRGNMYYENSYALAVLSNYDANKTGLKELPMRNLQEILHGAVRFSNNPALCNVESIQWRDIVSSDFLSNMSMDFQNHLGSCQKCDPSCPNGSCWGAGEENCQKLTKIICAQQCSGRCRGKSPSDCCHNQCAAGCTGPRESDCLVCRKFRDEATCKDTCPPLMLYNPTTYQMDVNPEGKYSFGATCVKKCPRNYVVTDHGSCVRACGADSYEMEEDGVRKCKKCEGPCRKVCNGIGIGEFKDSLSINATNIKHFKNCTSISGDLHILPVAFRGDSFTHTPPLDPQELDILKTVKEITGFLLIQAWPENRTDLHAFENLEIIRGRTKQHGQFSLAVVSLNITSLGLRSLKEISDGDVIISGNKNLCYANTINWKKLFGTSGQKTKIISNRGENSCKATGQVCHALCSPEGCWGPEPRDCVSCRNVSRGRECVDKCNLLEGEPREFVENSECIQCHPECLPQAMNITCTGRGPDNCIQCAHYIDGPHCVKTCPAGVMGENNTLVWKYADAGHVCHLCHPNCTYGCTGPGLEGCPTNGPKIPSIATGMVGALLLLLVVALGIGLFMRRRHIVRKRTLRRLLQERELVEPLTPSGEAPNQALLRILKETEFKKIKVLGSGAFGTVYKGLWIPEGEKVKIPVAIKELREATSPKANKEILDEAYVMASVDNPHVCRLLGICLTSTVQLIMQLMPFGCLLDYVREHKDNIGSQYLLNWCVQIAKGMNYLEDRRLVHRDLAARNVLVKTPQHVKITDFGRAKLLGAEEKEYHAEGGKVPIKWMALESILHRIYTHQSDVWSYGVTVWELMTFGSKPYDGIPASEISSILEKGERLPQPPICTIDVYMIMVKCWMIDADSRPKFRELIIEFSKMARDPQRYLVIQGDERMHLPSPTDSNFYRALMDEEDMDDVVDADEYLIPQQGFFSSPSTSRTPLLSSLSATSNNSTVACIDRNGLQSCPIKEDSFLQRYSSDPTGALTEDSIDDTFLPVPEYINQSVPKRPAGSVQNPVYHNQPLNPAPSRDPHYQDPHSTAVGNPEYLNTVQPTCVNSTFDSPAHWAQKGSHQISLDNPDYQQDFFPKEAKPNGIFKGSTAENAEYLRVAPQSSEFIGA

## O=C(N/N=C/c1ccc(C(F)(F)F)cc1)N1CCc2ncnc(Nc3ccc(F)c(Cl)c3)c2C1
A549 [1]
  IC50: 37.8 µM
RAW264.7 [2]
  Activity: 2.1 µM
MKN-45 [3]
  IC50: 21.4 µM
[4]
  IC50: 36.4 µM
NCI-H1975
  IC50: 36.8 µM
RAW264.7 [5]
  Activity: 0.79 µM
[6]
  inhibition at 20 µM: 65 to 83%
RAW264.7 [7]
  Activity: 3.87 µM

## O=C(N/N=C/c1cccs1)N1CCc2ncnc(Nc3cccc(Br)c3)c2C1
A549 [1]
  IC50: 50.2 µM
MKN-45 [3]
  IC50: > 200 µM
[4]
  IC50: > 200 µM
NCI-H1975
  IC50: 122 µM
RAW264.7 [5]
  Activity: <1.9 µM
[6]
  inhibition at 20 µM: 65 to 83%

## CSc1ccc(/C=N/NC(=O)N2CCc3ncnc(Nc4ccc(F)c(Cl)c4)c3C2)cc1
RAW264.7 [5]
  Activity: <1.9 µM
[6]
  inhibition at 20 µM: 65 to 83%

## O=C(N/N=C/c1cccs1)N1CCc2ncnc(Nc3ccc(F)c(Cl)c3)c2C1
A549 [1]
  IC50: > 200 µM
MKN-45 [3]
  IC50: 57.3 µM
[4]
  IC50: 96.3 µM
[8]
  IC50: 0.0625 µM
NCI-H1975
  IC50: 33 µM
RAW264.7 [5]
  Activity: <1.9 µM
[6]
  inhibition at 20 µM: 83%
[9]
  IC50: 0.237 µM

## O=C(N/N=C/c1ccc(F)cc1)N1CCc2ncnc(Nc3ccc(F)c(Cl)c3)c2C1
A549 [1]
  IC50: 11.4 µM
MKN-45 [3]
  IC50: 10.8 µM
[4]
  IC50: 16.9 µM
NCI-H1975
  IC50: 64.5 µM

## O=C(N/N=C/c1ccc(F)cc1)N1CCc2ncnc(Nc3cccc(Br)c3)c2C1
A549 [1]
  IC50: 2.27 µM
RAW264.7 [2]
  inhibition: Active
MKN-45 [3]
  IC50: 2.49 µM
[4]
  IC50: 1.79 µM
NCI-H1975
  IC50: 37.6 µM
RAW264.7 [5]
  inhibition: Active
RAW264.7 [7]
  inhibition: Active

## O=C(N/N=C/c1cccs1)N1CCc2ncnc(Nc3cccc(C(F)(F)F)c3)c2C1
A549 [1]
  IC50: 42.4 µM
MKN-45 [3]
  IC50: 36.4 µM
[4]
  IC50: 24.6 µM
NCI-H1975
  IC50: 169 µM
RAW264.7 [5]
  Activity: <1.9 µM
[6]
  inhibition at 20 µM: 65 to 83%

## Cc1ccc(/C=N/NC(=O)N2CCc3ncnc(Nc4ccc(F)c(Cl)c4)c3C2)cc1C
A549 [1]
  IC50: 15.6 µM
MKN-45 [3]
  IC50: 18.1 µM
[4]
  IC50: 11.5 µM
NCI-H1975
  IC50: 6.83 µM

## O=C(N/N=C/c1cccc(Br)c1)N1CCc2ncnc(Nc3cccc(Br)c3)c2C1
RAW264.7 [2]
  inhibition: Active
RAW264.7 [5]
  inhibition: Active
RAW264.7 [7]
  inhibition: Active

## O=C(N/N=C/c1ccc(Br)cc1)N1CCc2ncnc(Nc3cccc(Br)c3)c2C1
A549 [1]
  IC50: 6.56 µM
RAW264.7 [2]
  inhibition: Active
MKN-45 [3]
  IC50: 23.6 µM
[4]
  IC50: 6.93 µM
NCI-H1975
  IC50: 51 µM
RAW264.7 [5]
  inhibition: Active
[6]
  inhibition at 20 µM: 65 to 83%
RAW264.7 [7]
  inhibition: Active

## O=C(N/N=C/c1cc(F)c(F)cc1Cl)N1CCc2ncnc(Nc3ccc(F)c(Cl)c3)c2C1
A549 [1]
  IC50: 7.55 µM
MKN-45 [3]
  IC50: 7.33 µM
[4]
  IC50: 10.4 µM
[10]
  IC50: 0.0384 µM
[8]
  IC50: 0.0423 µM
NCI-H1975
  IC50: 46.1 µM
[11]
  IC50: 1.91 µM
[6]
  inhibition at 20 µM: 65 to 83%
[9]
  IC50: 0.17 µM

## O=C(N/N=C/c1ccc(F)cc1)N1CCc2ncnc(Nc3cccc(C(F)(F)F)c3)c2C1
A549 [1]
  IC50: 6.37 µM
MKN-45 [3]
  IC50: 4 µM
[4]
  IC50: 4.23 µM
NCI-H1975
  IC50: 55.6 µM

## O=C(N/N=C/c1cccc([N+](=O)[O-])c1)N1CCc2ncnc(Nc3ccc(F)c(Cl)c3)c2C1
A549 [1]
  IC50: 43.1 µM
MKN-45 [3]
  IC50: > 200 µM
[4]
  IC50: 34.8 µM
NCI-H1975
  IC50: 86.9 µM

## O=C(N/N=C/c1ccco1)N1CCc2ncnc(Nc3cccc(Br)c3)c2C1
A549 [1]
  IC50: 47.1 µM
MKN-45 [3]
  IC50: 65.7 µM
[4]
  IC50: > 200 µM
NCI-H1975
  IC50: > 200 µM

## O=C(N/N=C/c1ccc(Br)cc1)N1CCc2ncnc(Nc3ccc(F)c(Cl)c3)c2C1
A549 [1]
  IC50: 14.1 µM
MKN-45 [3]
  IC50: 12.1 µM
[4]
  IC50: 13.5 µM
NCI-H1975
  IC50: > 200 µM
[6]
  inhibition at 20 µM: 65 to 83%

## N#Cc1ccc(/C=N/NC(=O)N2CCc3ncnc(Nc4ccc(F)c(Cl)c4)c3C2)cc1
A549 [1]
  IC50: 42.6 µM
MKN-45 [3]
  IC50: 52.3 µM
[4]
  IC50: 35.8 µM
NCI-H1975
  IC50: 67.5 µM

## O=C(CCc1nc2ccccc2s1)N1CCc2ncnc(Cc3ccc(F)cc3)c2C1
[10]
  IC50: 0.0104 µM
[12]
  IC50: 0.00259 µM
[6]
  inhibition at 20 µM: 68%

## O=C(N/N=C/c1ccccc1)N1CCc2ncnc(Nc3cccc(Br)c3)c2C1
A549 [1]
  IC50: 22.7 µM
MKN-45 [3]
  IC50: 22.4 µM
[4]
  IC50: 16.4 µM
NCI-H1975
  IC50: 37.8 µM
RAW264.7 [5]
  Activity: <1.9 µM

## O=C(N/N=C/c1cccnc1)N1CCc2ncnc(Nc3cccc(Br)c3)c2C1
A549 [1]
  IC50: 72.1 µM
MKN-45 [3]
  IC50: > 200 µM
[4]
  IC50: > 200 µM
NCI-H1975
  IC50: > 200 µM

## Cc1ccc(/C=N/NC(=O)N2CCc3ncnc(Nc4cccc(C(F)(F)F)c4)c3C2)cc1
RAW264.7 [13]
  inhibition: Dose-dependent effect
A549 [1]
  IC50: 4.96 µM
MKN-45 [3]
  IC50: 3.43 µM
RAW264.7 [14]
  inhibition at 5 µg/mL: 54%
RAW264.7 [15]
  inhibition at 5 µg/mL: 65%
RAW264.7 [16]
  inhibition: Dose-dependent effect
[4]
  IC50: 2.91 µM
RAW264.7 [17]
  inhibition at 2.5 µg/mL: 37%
[10]
  IC50: 0.0291 µM
RAW264.7 [18]
  inhibition at 10 µg/mL: 72%
[8]
  IC50: 0.0242 µM
[19]
  IC50: 3.22 µM
RAW264.7 [20]
  inhibition at 10 µg/mL: 86%
NCI-H1975
  IC50: 21.3 µM
RAW264.7 [5]
  Activity: 1.05 µM
[11]
  IC50: 1.49 µM
[6]
  inhibition at 20 µM: 77%
RAW264.7 [21]
  inhibition at 2.5 µg/mL: 46%
[9]
  IC50: 0.152 µM

## O=C(N/N=C/c1ccc(Br)cc1)N1CCc2ncnc(Nc3cccc(C(F)(F)F)c3)c2C1
A549 [1]
  IC50: 11.5 µM
MKN-45 [3]
  IC50: 11.4 µM
[4]
  IC50: 16.8 µM
NCI-H1975
  IC50: 61.4 µM
[6]
  inhibition at 20 µM: 65 to 83%

## O=C(N/N=C/c1ccc(C(F)(F)F)cc1)N1CCc2ncnc(Nc3cccc(C(F)(F)F)c3)c2C1
[6]
  inhibition at 20 µM: 65 to 83%

## O=C(N/N=C/c1ccccc1)N1CCc2ncnc(Nc3ccc(F)c(Cl)c3)c2C1
A549 [1]
  IC50: 31.5 µM
MKN-45 [3]
  IC50: 22.9 µM
[4]
  IC50: 7.47 µM
NCI-H1975
  IC50: 28.8 µM

## O=C(N/N=C/c1ccc(F)cc1Cl)N1CCc2ncnc(Nc3cccc(Br)c3)c2C1
A549 [1]
  IC50: 1.61 µM
RAW264.7 [2]
  inhibition: Active
MKN-45 [3]
  IC50: 1.71 µM
MKN-45 [22]
  Ratio IC50: 6.1
[4]
  IC50: 0.99 µM
[23]
  Ratio IC50: 3.3
[8]
  IC50: 0.018 µM
[19]
  IC50: 0.94 µM
NCI-H1975
  IC50: 15.7 µM
RAW264.7 [5]
  inhibition: Active
A549 [24]
  Ratio IC50: 7.6
RAW264.7 [7]
  inhibition: Active
[9]
  IC50: 0.133 µM
